Experimental data from US20030040486A1 (priority 2001, published 2003).

How the values were obtained:
[1] = intrathecal administration; Jhamandas et al. 1998; cited from earlier work
male Sprague-Dawley rats [2] = assay: Rat hindpaw withdrawal latency (HWL) to thermal stimulation, hot-plate test; format: in vivo; details: for HWL increase using thermal stimulation: drug alone, intrathecal, FIGS. 2A and 2B; for % Changes of HWL to Thermal Stimulation: intrathecal every 12 hrs: morphine 8 μg, nociceptin 10 nmol, or rotated every two days
μ-opioid receptors = details: Hao et al. 1997; cited from earlier work
male Sprague-Dawley rats [3] = assay: Development of tolerance in the rat HWL study (thermal and mechanical stimulation); format: in vivo; details: for time to complete tolerance: intrathecal every 12 hrs, both hindpaws, thermal and mechanical HWL
male Sprague-Dawley rats [4] = assay: Rat hindpaw withdrawal latency (HWL) to mechanical stimulation, Randall Selitto Test; format: in vivo; details: for HWL increase using mechanical stimulation: drug alone, intrathecal, FIGS. 2C and 2D; for % Changes of HWL to Mechanical Stimulation: intrathecal every 12 hrs: morphine 8 μg, nociceptin 10 nmol, or rotated every two days

CC(C)C[C@H](NC(=O)[C@H](CCCCN)NC(=O)[C@H](CCCN=C(N)N)NC(=O)[C@H](C)NC(=O)[C@H](CO)NC(=O)[C@H](CCCCN)NC(=O)[C@H](CCCN=C(N)N)NC(=O)[C@H](C)NC(=O)CNC(=O)[C@@H](NC(=O)[C@H](Cc1ccccc1)NC(=O)CNC(=O)CNC(=O)[C@@H](N)Cc1ccccc1)[C@@H](C)O)C(=O)N[C@@H](C)C(=O)N[C@@H](CC(N)=O)C(=O)N[C@@H](CCC(N)=O)C(=O)O [Nociceptin, nociceptin]
duration of the antinociceptive response evoked by intrathecal deltorphin [1]: increase the duration | HWL increase using thermal stimulation (male Sprague-Dawley rats [2]; day 1): approximately 90% | % Changes of HWL to Thermal Stimulation (male Sprague-Dawley rats [2]; day 1, left hindpaw): 93.49 ± 3.77% | % Changes of HWL to Thermal Stimulation (male Sprague-Dawley rats [2]; day 1, right hindpaw): 90.42 ± 2.65% | % Changes of HWL to Thermal Stimulation (male Sprague-Dawley rats [2]; day 2, left hindpaw): 39.91 ± 3.66% | % Changes of HWL to Thermal Stimulation (male Sprague-Dawley rats [2]; day 2, right hindpaw): 43.02 ± 2.12% | % Changes of HWL to Thermal Stimulation (male Sprague-Dawley rats [2]; day 3, left hindpaw): 9.46 ± 2.31% | % Changes of HWL to Thermal Stimulation (male Sprague-Dawley rats [2]; day 3, right hindpaw): 12.01 ± 1.48% | % Changes of HWL to Thermal Stimulation (male Sprague-Dawley rats [2]; day 4, left hindpaw): −2.18 ± 2.07% | % Changes of HWL to Thermal Stimulation (male Sprague-Dawley rats [2]; day 4, right hindpaw): −3.67 ± 1.61% | binding to μ-opioid receptors (μ-opioid receptors): does not bind | tolerance developed (male Sprague-Dawley rats [3]; by day 2, nociceptin alone group): 50% | time to complete tolerance (male Sprague-Dawley rats [3]): 4 days | HWL increase using mechanical stimulation (male Sprague-Dawley rats [4]; day 1): 60-70% | % Changes of HWL to Mechanical Stimulation (male Sprague-Dawley rats [4]; day 1, left hindpaw): 69.90 ± 4.11% | % Changes of HWL to Mechanical Stimulation (male Sprague-Dawley rats [4]; day 1, right hindpaw): 61.26 ± 3.85% | % Changes of HWL to Mechanical Stimulation (male Sprague-Dawley rats [4]; day 2, left hindpaw): 31.28 ± 5.03% | % Changes of HWL to Mechanical Stimulation (male Sprague-Dawley rats [4]; day 2, right hindpaw): 30.79 ± 6.58% | % Changes of HWL to Mechanical Stimulation (male Sprague-Dawley rats [4]; day 3, left hindpaw): 10.59 ± 0.93% | % Changes of HWL to Mechanical Stimulation (male Sprague-Dawley rats [4]; day 3, right hindpaw): 10.08 ± 1.05% | % Changes of HWL to Mechanical Stimulation (male Sprague-Dawley rats [4]; day 4, left hindpaw): −0.62 ± 1.45% | % Changes of HWL to Mechanical Stimulation (male Sprague-Dawley rats [4]; day 4, right hindpaw): −0.76 ± 2.32%

CN1CC[C@]23c4c5ccc(O)c4O[C@H]2[C@@H](O)C=C[C@H]3[C@H]1C5 [Morphine, morphine]
HWL increase using thermal stimulation (male Sprague-Dawley rats [2]; day 1): approximately 67% | time to complete tolerance (male Sprague-Dawley rats [3]): 6 days | HWL increase using mechanical stimulation (male Sprague-Dawley rats [4]; day 1): ~55%
